Test: Cytotoxicity against human HepG2 cells assessed as reduction in cell viability incubated for 24 hrs by MTT assay
Assay type: toxicity, cell-based

| SMILES | IC50 at 24 h [µM] |
| --- | --- |
| C[C@@H]1CC(=O)c2c(O)cccc2[C@@H]1O | 3000 |
| C[C@@H]1CC(=O)c2c(O)cccc2[C@H]1O | 1000 |
| CC1=CC(=O)c2c(O)cccc2C1=O [PLUMBAGIN] | 14 |
